Results published in ChEMBL document CHEMBL5042489, “Inhibitors of the Hippo Pathway Kinases STK3/MST2 and STK4/MST1 Have Utility for the Treatment of Acute Myeloid Leukemia” (J Med Chem, 2022).
Calls of active or inactive are those of the source. The rule behind the calls is not given here.

How the values were obtained:
[1] = biological target: T1, Serine/threonine-protein kinase 3 (Homo sapiens, UniProt Q13188)
T1 sequence (Q13188 whole entry): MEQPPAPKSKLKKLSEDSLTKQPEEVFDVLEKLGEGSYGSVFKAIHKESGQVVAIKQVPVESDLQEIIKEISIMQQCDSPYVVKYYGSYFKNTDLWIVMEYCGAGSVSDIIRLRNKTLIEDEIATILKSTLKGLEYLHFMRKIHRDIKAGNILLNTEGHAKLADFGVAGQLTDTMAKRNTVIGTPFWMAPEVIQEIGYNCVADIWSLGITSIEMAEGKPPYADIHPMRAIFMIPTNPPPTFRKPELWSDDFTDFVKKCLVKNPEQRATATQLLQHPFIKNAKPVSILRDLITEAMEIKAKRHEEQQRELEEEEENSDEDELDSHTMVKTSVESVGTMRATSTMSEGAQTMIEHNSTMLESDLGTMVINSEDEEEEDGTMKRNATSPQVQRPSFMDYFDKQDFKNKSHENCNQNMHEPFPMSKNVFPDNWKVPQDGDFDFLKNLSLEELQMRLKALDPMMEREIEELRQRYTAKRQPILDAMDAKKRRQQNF

[2] = biological target: Leucine-rich repeat serine/threonine-protein kinase 2 (Homo sapiens, UniProt Q5S007); test: Displacement of K5 tracer from full length C-terminal NanoLuc fused human LRRK2 expressed in HEK293T cells incubated for 2 hrs by NanoBRET assay; format: cell-based
[3] = biological target: T1, Serine/threonine-protein kinase 3; remark: listed apart in the source
Description: Displacement of K5 tracer from full length C-terminal NanoLuc fused human STK3 expressed in HEK293T cells incubated for 2 hrs by NanoBRET assay

[4] = Drug concentration in C57BL/6 mouse plasma at 20 mg/kg, ip measured after 30 mins by LC-MS/MS analysis; format: ADME, organism-based
[5] = biological target: T2, Serine/threonine-protein kinase 4 (Homo sapiens, UniProt Q13043)
T2 sequence (Q13043 whole entry): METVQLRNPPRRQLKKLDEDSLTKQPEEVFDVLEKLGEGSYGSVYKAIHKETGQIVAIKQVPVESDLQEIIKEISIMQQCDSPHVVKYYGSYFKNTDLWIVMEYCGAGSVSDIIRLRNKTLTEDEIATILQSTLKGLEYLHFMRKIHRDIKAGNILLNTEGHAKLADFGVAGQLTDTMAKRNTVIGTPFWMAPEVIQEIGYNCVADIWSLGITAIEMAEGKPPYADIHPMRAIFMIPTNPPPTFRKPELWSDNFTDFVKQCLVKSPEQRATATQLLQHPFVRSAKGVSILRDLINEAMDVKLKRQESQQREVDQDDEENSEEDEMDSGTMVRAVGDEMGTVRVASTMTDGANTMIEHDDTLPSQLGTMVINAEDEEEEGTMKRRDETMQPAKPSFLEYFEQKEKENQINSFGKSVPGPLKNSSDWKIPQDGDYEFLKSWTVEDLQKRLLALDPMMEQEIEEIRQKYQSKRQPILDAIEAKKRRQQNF
Description: Displacement of K5 tracer from full length C-terminal NanoLuc fused human STK4 expressed in HEK293T cells incubated for 2 hrs by NanoBRET assay

[6] = biological target: T3, Serine/threonine-protein kinase 3 (Homo sapiens) (UniProt Q13188); test: Inhibition of STK3 in HEK293 cells assessed as increase in YAP/TAZ-TEAD activity at 10 uM incubated for 48 hrs by Dual-Glo luciferase assay; format: cell-based
T3 sequence (whole entry): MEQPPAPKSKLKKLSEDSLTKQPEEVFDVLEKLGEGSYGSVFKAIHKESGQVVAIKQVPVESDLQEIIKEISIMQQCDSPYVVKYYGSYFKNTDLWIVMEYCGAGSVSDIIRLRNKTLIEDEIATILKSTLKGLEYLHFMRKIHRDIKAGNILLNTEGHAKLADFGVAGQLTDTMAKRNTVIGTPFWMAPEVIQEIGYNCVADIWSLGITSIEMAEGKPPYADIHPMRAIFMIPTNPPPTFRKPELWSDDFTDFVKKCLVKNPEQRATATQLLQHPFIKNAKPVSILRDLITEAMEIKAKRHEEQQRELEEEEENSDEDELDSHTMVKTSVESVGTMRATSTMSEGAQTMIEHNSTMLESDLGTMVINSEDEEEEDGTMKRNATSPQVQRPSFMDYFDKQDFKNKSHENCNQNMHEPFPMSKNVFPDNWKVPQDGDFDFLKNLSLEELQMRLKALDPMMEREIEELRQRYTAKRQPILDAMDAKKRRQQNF

[7] = biological target: T2, Serine/threonine-protein kinase 4; remark: listed apart in the source
[8] = biological target: T1, Serine/threonine-protein kinase 3; test: Binding affinity to recombinant N-terminal His6-tagged human STK3 (18 to 311 residues) expressed in Escherichia coli assessed as dissociation constant by isothermal titration calorimetry
[9] = biological target: T2, Serine/threonine-protein kinase 4; test: Binding affinity to recombinant N-terminal His6-tagged human STK4 (43 to 431 residues) expressed in Escherichia coli assessed as dissociation constant by isothermal titration calorimetry
[10] = biological target: T4, Serine/threonine-protein kinase 4 (Homo sapiens) (UniProt Q13043); settings: dose 20.0 µM
T4 sequence (whole entry): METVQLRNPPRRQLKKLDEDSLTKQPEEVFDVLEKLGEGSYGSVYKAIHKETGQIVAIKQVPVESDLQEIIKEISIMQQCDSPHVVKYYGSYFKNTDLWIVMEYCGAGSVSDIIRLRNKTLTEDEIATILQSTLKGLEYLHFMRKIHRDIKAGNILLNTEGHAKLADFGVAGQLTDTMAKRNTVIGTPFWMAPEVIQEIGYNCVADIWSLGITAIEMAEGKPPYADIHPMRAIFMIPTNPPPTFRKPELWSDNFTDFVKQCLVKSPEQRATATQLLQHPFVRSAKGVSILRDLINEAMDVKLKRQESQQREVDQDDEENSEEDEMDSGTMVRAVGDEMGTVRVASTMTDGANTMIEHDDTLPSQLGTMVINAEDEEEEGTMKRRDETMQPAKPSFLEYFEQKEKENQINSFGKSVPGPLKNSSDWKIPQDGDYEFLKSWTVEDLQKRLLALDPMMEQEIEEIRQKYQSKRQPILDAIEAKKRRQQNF
Description: Inhibition of recombinant N-terminal His6-tagged human STK4 (43 to 431 residues) expressed in Escherichia coli assessed as melting temperature at 20 uM by thermal shift assay (Rvb = 55 degreeC)

[11] = biological target: T3, Serine/threonine-protein kinase 3 (Homo sapiens); test: Inhibition of recombinant N-terminal His6-tagged human STK3 (18 to 311 residues) expressed in Escherichia coli assessed as melting temperature at 20 uM by thermal shift assay
[12] = biological target: T2, Serine/threonine-protein kinase 4; remark: listed apart in the source
[13] = substrate: Clc1cccc(-c2c[nH]c3ncnc(N4CCOCC4)c23)c1; settings: Homo sapiens; time 165.0 min

Sequence of Leucine-rich repeat serine/threonine-protein kinase 2 (Q5S007 whole entry, the tested form may be a part): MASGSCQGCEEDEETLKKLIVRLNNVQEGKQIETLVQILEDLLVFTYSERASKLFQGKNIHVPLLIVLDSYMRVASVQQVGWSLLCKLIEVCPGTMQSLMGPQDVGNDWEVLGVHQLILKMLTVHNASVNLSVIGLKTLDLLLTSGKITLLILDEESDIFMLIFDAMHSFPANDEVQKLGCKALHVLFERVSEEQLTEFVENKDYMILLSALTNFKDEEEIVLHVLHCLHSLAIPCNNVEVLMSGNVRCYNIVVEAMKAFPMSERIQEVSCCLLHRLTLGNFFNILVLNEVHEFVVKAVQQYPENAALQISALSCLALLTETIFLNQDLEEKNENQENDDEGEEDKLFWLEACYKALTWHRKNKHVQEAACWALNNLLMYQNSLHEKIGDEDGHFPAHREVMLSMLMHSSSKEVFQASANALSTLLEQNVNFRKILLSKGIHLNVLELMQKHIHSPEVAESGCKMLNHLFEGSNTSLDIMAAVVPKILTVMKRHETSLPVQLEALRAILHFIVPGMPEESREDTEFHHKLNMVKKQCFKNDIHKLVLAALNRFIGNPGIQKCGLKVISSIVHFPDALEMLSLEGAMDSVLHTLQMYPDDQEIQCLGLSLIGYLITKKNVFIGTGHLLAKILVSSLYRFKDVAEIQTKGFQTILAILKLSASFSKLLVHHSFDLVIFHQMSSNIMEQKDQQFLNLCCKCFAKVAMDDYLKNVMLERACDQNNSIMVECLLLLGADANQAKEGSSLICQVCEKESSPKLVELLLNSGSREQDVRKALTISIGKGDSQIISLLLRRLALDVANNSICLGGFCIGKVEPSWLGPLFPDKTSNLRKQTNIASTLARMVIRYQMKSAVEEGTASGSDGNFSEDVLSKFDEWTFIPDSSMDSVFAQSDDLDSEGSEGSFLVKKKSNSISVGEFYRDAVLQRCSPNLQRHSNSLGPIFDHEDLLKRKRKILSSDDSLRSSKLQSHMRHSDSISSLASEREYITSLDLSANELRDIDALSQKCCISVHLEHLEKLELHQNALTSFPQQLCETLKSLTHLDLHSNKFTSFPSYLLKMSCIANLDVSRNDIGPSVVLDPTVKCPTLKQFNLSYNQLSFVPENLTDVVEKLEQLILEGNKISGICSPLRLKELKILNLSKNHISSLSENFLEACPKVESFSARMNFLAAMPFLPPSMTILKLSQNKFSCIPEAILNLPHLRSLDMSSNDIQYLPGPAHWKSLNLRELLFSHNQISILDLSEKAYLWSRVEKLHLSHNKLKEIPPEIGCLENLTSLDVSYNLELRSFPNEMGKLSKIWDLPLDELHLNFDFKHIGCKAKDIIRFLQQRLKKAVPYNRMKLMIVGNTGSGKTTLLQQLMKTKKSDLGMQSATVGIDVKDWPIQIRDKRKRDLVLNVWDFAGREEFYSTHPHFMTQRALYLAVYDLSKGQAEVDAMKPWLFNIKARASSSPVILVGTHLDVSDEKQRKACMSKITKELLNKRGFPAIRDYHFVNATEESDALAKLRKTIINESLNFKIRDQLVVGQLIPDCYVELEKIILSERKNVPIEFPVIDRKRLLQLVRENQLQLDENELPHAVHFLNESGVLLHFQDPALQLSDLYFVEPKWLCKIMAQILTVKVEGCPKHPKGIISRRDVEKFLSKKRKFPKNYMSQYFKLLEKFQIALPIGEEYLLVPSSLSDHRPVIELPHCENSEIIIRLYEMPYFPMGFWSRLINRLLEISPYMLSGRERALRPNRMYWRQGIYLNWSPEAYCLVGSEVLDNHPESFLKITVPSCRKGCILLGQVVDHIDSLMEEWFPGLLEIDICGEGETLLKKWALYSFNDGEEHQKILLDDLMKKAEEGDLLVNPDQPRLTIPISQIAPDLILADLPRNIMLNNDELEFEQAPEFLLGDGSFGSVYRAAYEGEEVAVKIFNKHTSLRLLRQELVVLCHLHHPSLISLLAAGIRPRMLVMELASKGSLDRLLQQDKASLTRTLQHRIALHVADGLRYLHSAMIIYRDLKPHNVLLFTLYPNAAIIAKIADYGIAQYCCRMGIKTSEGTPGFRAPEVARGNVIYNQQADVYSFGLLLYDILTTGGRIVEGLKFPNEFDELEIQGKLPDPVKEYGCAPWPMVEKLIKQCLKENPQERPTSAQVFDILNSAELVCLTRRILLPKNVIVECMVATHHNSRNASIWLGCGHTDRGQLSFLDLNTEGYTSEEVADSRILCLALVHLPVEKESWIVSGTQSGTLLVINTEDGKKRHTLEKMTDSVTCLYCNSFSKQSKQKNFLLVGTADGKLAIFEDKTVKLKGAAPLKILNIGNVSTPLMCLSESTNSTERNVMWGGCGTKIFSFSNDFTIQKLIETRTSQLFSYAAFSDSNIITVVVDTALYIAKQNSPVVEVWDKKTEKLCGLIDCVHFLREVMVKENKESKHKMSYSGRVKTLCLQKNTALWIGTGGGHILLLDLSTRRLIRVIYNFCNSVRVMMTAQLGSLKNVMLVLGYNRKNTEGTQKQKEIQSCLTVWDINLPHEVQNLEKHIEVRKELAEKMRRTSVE

## COc1cccc(-c2c[nH]c3ncnc(N4CCOCC4)c23)c1
[1]
  IC50: 766 nM

## CC1(O)CCN(c2ncnc3[nH]cc(-c4cccc(Cl)c4)c23)CC1
[1]
  IC50: 189 nM

## Clc1cccc(-c2csc3ncnc(N4CCOCC4)c23)c1
[1]
  IC50: > 10000 nM

## N#Cc1cccc(-c2c[nH]c3ncnc(N4CCOCC4)c23)c1
[2]
  IC50: 84 nM
[3]
  IC50: 197 nM

## OCCCNc1ncnc2[nH]cc(-c3cccc(Cl)c3)c12
[2]
  IC50: 2490 nM
[4]
  concentration at 0.5 h: > 1400 nM
[1]
  IC50: 173 nM
[3]
  IC50: 668 nM

## Cc1cccc(-c2c[nH]c3ncnc(N4CCOCC4)c23)c1
[2]
  IC50: 127 nM
[4]
  concentration at 0.5 h: > 1400 nM
[1]
  IC50: 121 nM
[3]
  IC50: 434 nM

## CN1C(=O)c2sccc2N(C)c2nc(Nc3ccc(S(N)(=O)=O)cc3)ncc21
[5]
  IC50: 1040 nM

## Cc1ccc(-c2c[nH]c3ncnc(N4CCOCC4)c23)cc1
[6]
  inhibition: inactive
[1]
  IC50: 2020 nM

## CN(C)c1ncnc2[nH]cc(-c3cccc(Cl)c3)c12
[1]
  IC50: 349 nM

## CNC1CCN(c2ncnc3[nH]cc(-c4cccc(Cl)c4)c23)CC1
[2]
  IC50: 3540 nM
[4]
  concentration at 0.5 h: > 1400 nM

## CCN(CCO)c1ncnc2[nH]cc(-c3cccc(Cl)c3)c12
[1]
  IC50: 226 nM

## c1ccc(-c2c[nH]c3ncnc(N4CCOCC4)c23)cc1
[7]
  IC50: 183 nM
[1]
  IC50: 197 nM

## Fc1ccc(-c2c[nH]c3ncnc(N4CCOCC4)c23)cc1
[4]
  concentration at 0.5 h: > 1400 nM
[1]
  IC50: 766 nM

## Clc1cccc(-c2c[nH]c3nccc(N4CCOCC4)c23)c1
[8]
  Kd: 48 nM
[9]
  Kd: 158 nM
[2]
  IC50: 121 nM
[6]
  inhibition: Active
[4]
  concentration at 0.5 h: > 1400 nM
[7]
  IC50: 66 nM
[1]
  IC50: 119 nM
[3]
  IC50: 373 nM
[5]
  IC50: 192 nM
[10]
  Tm: 63.6 °C

## c1nc(N2CCOCC2)c2c(-c3ccoc3)c[nH]c2n1
[1]
  IC50: 986 nM

## Fc1cccc(-c2c[nH]c3ncnc(N4CCOCC4)c23)c1
[11]
  ΔTm: > 5.2 °C
[2]
  IC50: 246 nM
[6]
  inhibition: Active
[4]
  concentration at 0.5 h: > 1400 nM
[1]
  IC50: 191 nM
[3]
  IC50: 373 nM

## CN(CCO)c1ncnc2[nH]cc(-c3cccc(Cl)c3)c12
[2]
  IC50: 1520 nM
[4]
  concentration at 0.5 h: > 1400 nM
[7]
  IC50: 79 nM
[1]
  IC50: 117 nM
[3]
  IC50: 631 nM
[5]
  IC50: 406 nM

## Clc1cccc(-c2c[nH]c3ccnc(N4CCOCC4)c23)c1
[1]
  IC50: > 10000 nM

## Cc1ccccc1-c1c[nH]c2ncnc(N3CCOCC3)c12
[6]
  inhibition: inactive
[7]
  IC50: 2400 nM
[1]
  IC50: 6900 nM

## Clc1cccc(-c2c[nH]c3ncnc(NCC4CC4)c23)c1
[1]
  IC50: 213 nM

## c1csc(-c2c[nH]c3ncnc(N4CCOCC4)c23)c1
[1]
  IC50: 267 nM

## Fc1ccccc1-c1c[nH]c2ncnc(N3CCOCC3)c12
[1]
  IC50: 558 nM

## Clc1cccc(-c2n[nH]c3ncnc(N4CCOCC4)c23)c1
[7]
  IC50: 1610 nM
[1]
  IC50: 4800 nM

## COc1ccccc1-c1c[nH]c2ncnc(N3CCOCC3)c12
[1]
  IC50: 230 nM

## Clc1cccc(-c2c[nH]c3ncnc(N4CCCCC4)c23)c1
[11]
  ΔTm: > 5.2 °C
[2]
  IC50: 1140 nM
[4]
  concentration at 0.5 h: > 1400 nM
[1]
  IC50: 167 nM
[3]
  IC50: 1100 nM

## Clc1cccc(-c2c[nH]c3ncnc(N4CCOCC4)c23)c1
[9]
  Kd: 147 nM
[2]
  IC50: 264 nM
[4]
  concentration at 0.5 h: > 1400 nM
[7]
  IC50: 35 nM
[12]
  Ki: 50 nM
[5]
  IC50: 320 nM
[10]
  Tm: 63.8 °C

## CC1(N)CCN(c2ncnc3[nH]cc(-c4cccc(Cl)c4)c23)CC1
[4]
  concentration at 0.5 h: > 1400 nM
[1]
  IC50: 278 nM

## c1coc(-c2c[nH]c3ncnc(N4CCOCC4)c23)c1
[1]
  IC50: 487 nM

## CC(CO)CN(C)c1ncnc2[nH]cc(-c3cccc(Cl)c3)c12 (stereo not given)
[2]
  IC50: 7140 nM
[4]
  concentration at 0.5 h: > 1400 nM
[7]
  IC50: 38 nM
[1]
  IC50: 58 nM
[3]
  IC50: 289 nM
[5]
  IC50: 444 nM

## Clc1cccc(-c2coc3ncnc(N4CCOCC4)c23)c1
[1]
  IC50: > 10000 nM

B1: Serine/threonine-protein kinase 4 (Homo sapiens), Q13043 (protein)
chain: METVQLRNPPRRQLKKLDEDSLTKQPEEVFDVLEKLGEGSYGSVYKAIHKETGQIVAIKQVPVESDLQEIIKEISIMQQCDSPHVVKYYGSYFKNTDLWIVMEYCGAGSVSDIIRLRNKTLTEDEIATILQSTLKGLEYLHFMRKIHRDIKAGNILLNTEGHAKLADFGVAGQLTDTMAKRNTVIGTPFWMAPEVIQEIGYNCVADIWSLGITAIEMAEGKPPYADIHPMRAIFMIPTNPPPTFRKPELWSDNFTDFVKQCLVKSPEQRATATQLLQHPFVRSAKGVSILRDLINEAMDVKLKRQESQQREVDQDDEENSEEDEMDSGTMVRAVGDEMGTVRVASTMTDGANTMIEHDDTLPSQLGTMVINAEDEEEEGTMKRRDETMQPAKPSFLEYFEQKEKENQINSFGKSVPGPLKNSSDWKIPQDGDYEFLKSWTVEDLQKRLLALDPMMEQEIEEIRQKYQSKRQPILDAIEAKKRRQQNF
[13]
  Km: 140 µM
